Consider 17 compounds from US20170037028A1 (BAYER PHARMA AKTIENGESELLSCHAFT, priority 2013, published 2017).

The test addresses T1, GLUT1 (Homo sapiens, UniProt P11166).
T1 sequence (P11166 1-492): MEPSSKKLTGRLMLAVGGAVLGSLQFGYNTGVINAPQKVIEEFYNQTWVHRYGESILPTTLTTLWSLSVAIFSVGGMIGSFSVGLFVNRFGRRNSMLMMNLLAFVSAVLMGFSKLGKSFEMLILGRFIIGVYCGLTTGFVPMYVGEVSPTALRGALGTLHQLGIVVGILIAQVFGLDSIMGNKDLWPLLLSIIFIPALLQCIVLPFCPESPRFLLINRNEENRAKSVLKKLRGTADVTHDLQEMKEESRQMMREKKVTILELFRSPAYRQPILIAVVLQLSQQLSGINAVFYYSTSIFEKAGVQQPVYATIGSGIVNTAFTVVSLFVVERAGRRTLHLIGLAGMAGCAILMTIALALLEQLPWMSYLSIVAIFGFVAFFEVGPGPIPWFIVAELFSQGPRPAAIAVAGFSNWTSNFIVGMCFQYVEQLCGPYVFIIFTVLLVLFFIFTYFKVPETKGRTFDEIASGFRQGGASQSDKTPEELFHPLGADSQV
The experiment in a line: Indirect measurement of GLUT1 activity by quantification of intracellular ATP levels (glucose induced ATP increase). The note with it: read-out: IC50 regarding glucose induced ATP increase (GLUT1 inhibition). The test is classed as cell-based. The arrangement: endogenous in cells; host or cells: DLD1 or CHO-K1. The method in brief:
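DLD1 or CHO-K1 cells were starved overnight in glucose-free medium with 1% FCS, then combined with an oxidative phosphorylation inhibitor. GLUT1 activity was read as glucose-induced ATP increase, GLUT2 as fructose-induced. Intracellular ATP was quantified by CellTiter-Glo luminescence.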
`CC(C)c1nn(Cc2ccc(C#N)cc2)c(C(F)(F)F)c1NC(=O)c1cc(C(N)=O)nc2ccccc12` [Example 319, N^4-[1-(4-cyanobenzyl)-3-isopropyl-5-(trifluoromethyl)-1H-pyrazol-4-yl]quinoline-2,4-dicarboxamide]: the IC50 (in general, the concentration needed to halve the response being measured) was determined as 1 nM.

For `CNC(=O)c1ccc(Cn2nc(C)c(NC(=O)c3cc(C(N)=O)nc4cc(F)ccc34)c2C)cc1` [Example 1425], the IC50 stood at 56.3 nM.

For `Cc1nn(Cc2cscn2)c(C)c1NC(=O)c1cc(C(F)(F)F)nc2ccc(Br)cc12` [Example 1351], the IC50 came out at 134 nM.

As for `CCOC(=O)N=S(C)(=O)c1ccc(Cn2nc(C)c(NC(=O)c3cc(C(N)=O)nc4ccccc34)c2C)cc1` (racemic) [Example 376, (±)-ethyl [{4-[(4-{[(2-carbamoylquinolin-4-yl)carbonyl]amino}-3,5-dimethyl-1H-pyrazol-1-yl)methyl]phenyl}(methyl)oxido-λ^6-sulfanylidene]carbamate], the IC50 is 642 nM.

Turning to `Cc1nn(Cc2ccc(C#N)cc2)c(C)c1NC(=O)c1cc(C(F)(F)F)nc2ccc(-c3c(C)noc3C)cc12` [Example 1198], the IC50 was 390 nM.

As to `Cc1c(NC(=O)c2cc(C(N)=O)nc3ccccc23)c(C(F)(F)F)nn1Cc1cc(F)ccc1C#N` [Example 1652], the 50% inhibitory concentration (IC50) was 112 nM.

`Cc1nn(Cc2ccccc2F)c(C)c1NC(=O)c1cc(C(F)(F)F)nc2c(Cl)cc(Cl)cc12` [Example 94, 6,8-dichloro-N-[1-(2-fluorobenzyl)-3,5-dimethyl-1H-pyrazol-4-yl]-2-(trifluoromethyl)quinoline-4-carboxamide]: the IC50 amounted to 304 nM.

`CNC(=O)c1cc(C(=O)Nc2c(C(F)(F)F)nn(Cc3ccc(F)cc3)c2C)c2ccccc2n1` [Example 178, N^4-[1-(4-fluorobenzyl)-5-methyl-3-(trifluoromethyl)-1H-pyrazol-4-yl]-N2-methylquinoline-2,4-dicarboxamide]: the IC50 is 78.5 nM.

For the compound `COc1cccc(Cn2nc(C)c(NC(=O)c3cc(OC)nc4ccccc34)c2C)c1` [Example 81, 2-methoxy-N-[1-(3-methoxybenzyl)-3,5-dimethyl-1H-pyrazol-4-yl]quinoline-4-carboxamide], the IC50 is 229 nM.

Take `Cc1c(NC(=O)c2cc(S(N)(=O)=O)nc3ccccc23)c(C(F)(F)F)nn1Cc1ccc(C#N)cc1` [Example 1572]: the IC50 is 219 nM.

`Cc1c(NC(=O)c2cc(C(F)(F)F)nc3ccc(Br)cc23)c(C(=O)O)nn1Cc1ccc(F)cc1` [Example 1271]: the IC50 stood at 3060 nM.

As for `Cc1c(NC(=O)c2cc(C(N)=O)nc3cc(F)c(Cl)cc23)c(C#N)nn1Cc1ccc(F)cc1` [Example 307, 6-chloro-N^4-[3-cyano-1-(4-fluorobenzyl)-5-methyl-1H-pyrazol-4-yl]-7-fluoroquinoline-2,4-dicarboxamide], the IC50 was 5.1 nM.

In the case of `COc1cccc(Cn2nc(C(F)(F)F)c(NC(=O)c3cc(C(N)=O)nc4ccc(Br)cc34)c2C)c1` [Example 1450], the IC50 turned out to be 2.3 nM.

As for `Cc1c(NC(=O)c2cc(C(F)(F)F)nc3c(Cl)cc(Cl)cc23)c(C(F)(F)F)nn1Cc1ccc(C#N)cc1` [Example 167, 6,8-dichloro-N-[1-(4-cyanobenzyl)-5-methyl-3-(trifluoromethyl)-1H-pyrazol-4-yl]-2-(trifluoromethyl)quinoline-4-carboxamide], the IC50 amounted to 46.2 nM.

Turning to `Cc1nn(Cc2ccc(F)c(F)c2)c(C)c1NC(=O)c1cc(C(C)C)nc2ccc(Br)cc12` [Example 129, 6-bromo-N-[1-(3,4-difluorobenzyl)-3,5-dimethyl-1H-pyrazol-4-yl]-2-(propan-2-yl)quinoline-4-carboxamide], the IC50 was 4.1 nM.

As to `Cc1nn(Cc2ccc(F)cc2F)c(C)c1NC(=O)c1cc(C(N)=O)nc2cc(F)ccc12` [Example 1487], the IC50 came to 1.2 nM.

For the compound `Cc1nn(Cc2ccc(F)c(Cl)c2)c(C)c1NC(=O)c1cc(C(F)(F)F)nc2ccc(Br)cc12` [Example 190, 6-bromo-N-[1-(3-chloro-4-fluorobenzyl)-3,5-dimethyl-1H-pyrazol-4-yl]-2-(trifluoromethyl)quinoline-4-carboxamide], the half-maximal inhibitory concentration (IC50) was found to be 171 nM.
